SMILES strings stand for the structures. Like-named read-outs stand apart in the source and are kept apart here.

For assay [1], the target named is T1, OBP14 (Apis mellifera, UniProt A0A8U0WQC3). As to the kind of experiment: biochemical. Conditions: for kon: read-out: [kon] / M^-1s^-1; for binding to OBP14 (in words): qualitative ranking from biosensor results. Format: binding, honeybees.
The target in assay [2] is T1, OBP14. The conditions noted are these: fluorescent displacement assays, literature; cited from earlier work.
The mark [3] stands for this setting: 10^2 [KA] /M^-1, Table 2, affinity constant KA = kon/koff from titration, Langmuir model fit.
Setting [4] is: 10^-6 [KD] /M, Table 2, KD = 1/KA from titration, Langmuir model fit.
[5] abbreviates: 10^- 6[KD] /M, Table 1, KD = 1/KA from titration, Langmuir model, 1mM PBS, pH = 8.0.
Setting [6] is: KD, from Langmuir isotherm plot, half saturation concentration (50% surface coverage).
Setting [7] is: KD, from the kinetic measurement (titration fitted with Langmuir model).
The mark [8] stands for this setting: Table 1, affinity constant KA = kon/koff from titration, Langmuir model, 1mM PBS, pH = 8.0.
Where [9] appears, read: Table 2, affinity constant KA = kon/koff from titration, Langmuir model fit.
Where [10] appears, read: Table 2, association rate constant from titration fit.
The mark [11] stands for this setting: Table 2, dissociation rate constant from final buffer wash fit, read-out: [ koff] / s^-1.
[12] abbreviates: dissociation constant of KD, control experiment, eugenol and methyl eugenol on the same sensor device.

T1 sequence (A0A8U0WQC3 entry or part of it): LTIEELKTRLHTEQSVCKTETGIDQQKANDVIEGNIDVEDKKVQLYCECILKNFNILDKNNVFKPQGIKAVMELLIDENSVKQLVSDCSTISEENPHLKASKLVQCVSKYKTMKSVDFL

As for `COc1cc(/C=C/C=O)ccc1O` [Coniferyl aldehyde, (E)-3-(4-hydroxy-3-methoxyphenyl) prop-2-enal], the Kd in assay [1] (setting [3]) was 8.06 µM; in assay [1] (setting [4]), 9.1 ± 2.3 µM. The koff in assay [1] (read-out: [ koff] / s^-1) came out at 0.003 s⁻¹. The kon in assay [1] turned out to be 370 ± 190 M⁻¹ s⁻¹. The “affinity to OBP14 (in words)” value in assay [2] was “did not show good affinity”.
For the compound `CC(C)=CCCC(C)=CC=O` (mixture of isomers) [Citral, (2E)-3,7-dimethylocta-2,6-dienal], the Kd in assay [1] (setting [5]) was 589.2 ± 0.6 µM; in assay [1] (setting [6]), 550 µM; in assay [1] (setting [7]) it was 590 µM. For the same compound, in assay [1] (setting [8]), the “10^2 [KA] /M^-1” value is recorded as 16.97 ± 0.02 10^2 M^-1. Also, in assay [1], the “binding to OBP14 (in words)” value is recorded as “moderate or weak binders”. The koff in assay [1] (read-out: [koff] /s ^-1) was determined as 0.0035 s⁻¹.
`COc1cc(CCC(C)=O)ccc1O` [Vanillyl acetone, 4-(4-hydroxy-3-methoxyphenyl)butan-2-one]: the “10^2 [KA] /M^-1” value in assay [1] (setting [9]) is 409.7 ± 0.3 10^2 M^-1. The Kd in assay [1] (read-out: 10^-6 [KD] /M) is 24.4 ± 0.02 µM. For the same compound, in assay [1] (read-out: [ koff] / s^-1), the koff was 0.007 s⁻¹. In addition, the kon in assay [1] was 286.8 ± 0.2 M⁻¹ s⁻¹.
Consider `COc1cc(C=O)ccc1O` [Vanillin, 4-Hydroxy-3-methoxybenzaldehyd], for which the Kd was 20.7 µM in assay [1] (setting [3]) and 23.8 ± 6 µM in assay [1] (setting [4]). In addition, the kon in assay [1] (setting [10]) is 191 ± 111 M⁻¹ s⁻¹. The koff in assay [1] (setting [11]) worked out at 0.0038 s⁻¹.
`COc1cc(CC(=O)O)ccc1O` [Homovanillic acid, 2-(4-Hydroxy-3-methoxy-phenyl)acetic acid] returned a Kd in assay [1] (setting [5]) of 6.5 ± 0.7 µM. Besides, the “10^2 [KA] /M^-1” value in assay [1] (setting [8]) is on record as 1540 ± 140 10^2 M^-1. Further, the koff in assay [1] (read-out: [koff] /s ^-1) came out at 0.0078 s⁻¹. Further, the “affinity to OBP14 (in words)” value in assay [2] is given as “did not show good affinity”.
`C=CCc1ccc(O)c(OC)c1` [Eugenol, 4-Allyl-2-methoxyphenol]: the koff in assay [1], in assay [1] (read-out: [ koff] / s^-1) and in assay [1] (read-out: [koff] /s ^-1) was 0.003 s⁻¹ throughout. In addition, the “real-time response (ΔIDS) of the biosensor” value in assay [1] (5 µM eugenol solution compared with a 10 fold higher concentrated methyl eugenol solution, same sensor device) is recorded as “significantly higher”. For the same compound, the Kd in assay [1] (setting [5]) was 9.2 ± 0.7 µM; in assay [1] (setting [4]), 9.2 ± 0.7 µM; in assay [1] (setting [6]) it was 1.9 µM; in assay [1] (setting [7]), 9.2 µM; in assay [1] (setting [12]), 19 µM. The “10^2 [KA] /M^-1” value in assay [1] (setting [8]) and in assay [1] (setting [9]) was 1087 ± 91 10^2 M^-1 in each case. The “binding to OBP14 (in words)” value in assay [1] is “high affinity”. The kon in assay [1] was 326 ± 27 M⁻¹ s⁻¹.
`CC(=O)OCCC(C)C` [Isoamyl acetate, 3-methylbutyl acetate]: the Kd in assay [1] (Table 1, KD = 1/KA from titration, Langmuir model, 1mM PBS, pH = 8.0, read-out: 10^- 6[KD] /M) worked out at 814 ± 58 µM. Also, the “10^2 [KA] /M^-1” value in assay [1] (setting [8]) is on record as 12.33 ± 0.86 10^2 M^-1. The “[kon] /M^1s^-1” value in assay [1] (Table 1, association rate constant from titration fit) is recorded as 8.3 ± 0.6 M^1s^-1. The koff in assay [1] (Table 1, dissociation rate constant from final buffer wash fit, read-out: [koff] /s ^-1) was determined as 0.0068 s⁻¹. Besides, the “binding to OBP14 (in words)” value in assay [1] is on record as “behave poorly”.
As for `C=CCc1ccc(OC)c(OC)c1` [Methyl eugenol, 1,2-Dimethoxy-4-prop-2-enylbenzene], the Kd came to 520 ± 0.1 µM in assay [1] (setting [4]) and 590 µM in assay [1] (setting [12]). For the same compound, the “10^2 [KA] /M^-1” value in assay [1] (setting [9]) is reported as 19.23 ± 0.03 10^2 M^-1. Also, in assay [1] (setting [10]), the kon was determined as 8.92 ± 0.01 M⁻¹ s⁻¹. The koff in assay [1] (setting [11]) is 0.0046 s⁻¹. Moreover, the “concentration at which equilibrium was achieved, relative to the other odorants” value in assay [1] (titration curves Fig. 3, compared with three ligands with phenolic based structure) is listed as “about 10 fold”.
Turning to `COC(=O)c1ccc(O)c(OC)c1` [Methyl vanillate, Methyl 4-hydroxy-3-methoxybenzoate], the Kd in assay [1] (Table 2, KD = 1/KA from titration, Langmuir model fit, read-out: 10^-6 [KD] /M) was 22 ± 4.5 µM; in assay [1] (from Langmuir isotherm of change in drain current ΔIDS vs odorant concentration [Od] (Fig. 1D), read-out: KD), 10 µM; in assay [1] (from Langmuir isotherm plot, half saturation concentration (50% surface coverage), read-out: KD), 24 µM; in assay [1] (from linear relationship between reaction rate constant k and odorant concentration (Fig. 1B), read-out: KD), 30 µM; in assay [1] (from the kinetic measurement (titration fitted with Langmuir model), read-out: KD), 22 µM. The “10^2 [KA] /M^-1” value in assay [1] (setting [9]) is on record as 479 ± 136 10^2 M^-1. Moreover, the kon in assay [1] (setting [10]) worked out at 239 ± 68 M⁻¹ s⁻¹. Moreover, in assay [1] (setting [11]), the koff turned out to be 0.005 s⁻¹.
`CC(C)=CCC/C(C)=C/CO` [Geraniol, (2E)-3,7-Dimethylocta-2,6-dien-1-ol]: in assay [1] (setting [5]), the Kd turned out to be 1120 ± 5 µM. The “10^2 [KA] /M^-1” value in assay [1] (setting [8]) was 8.96 ± 0.04 10^2 M^-1. For the same compound, in assay [1], the “binding to OBP14 (in words)” value is recorded as “moderate or weak binders”. For the same compound, the koff in assay [1] (read-out: [koff] /s ^-1) was determined as 0.0077 s⁻¹.
In the case of `CC(=O)CCC=C(C)C` [Sulcatone, 6-Methylhept-5-en-2-one], the Kd in assay [1] (setting [5]) came to 1410 ± 21 µM; in assay [1] (setting [6]) it was 1500 µM; in assay [1] (setting [7]), 1400 µM. In assay [1] (setting [8]), the “10^2 [KA] /M^-1” value is 7.07 ± 0.11 10^2 M^-1. The “binding to OBP14 (in words)” value in assay [1] is reported as “behave poorly”. Moreover, the koff in assay [1] (read-out: [koff] /s ^-1) was 0.0074 s⁻¹.

These data come from EP2848929A1, “Graphene FET-based biosensor” (AIT Austrian Institute of Technology GmbH, priority 2013, dated 2015).
